Measurements: patent publication US20240269157A1, “COMPOSITIONS AND METHODS FOR OVERCOMING MICROENVIRONMENT-MEDIATED RESISTANCE VIA E-SELECTIN TARGETING” (GLYCOMIMETICS, INC., priority 2021, published 2024)

Experiments:
FUT7 promoter = test: Targeted Next-Gen bisulfite sequencing of the FUT7 promoter region in KG1 cells; type: cell-based, human; details: dose and time dependent
Protocol: To test whether the increased expression of FUT7 mRNA in KG1 cells treated with 5-AZA could be due to hypomethylation of the FUT7 promoter, targeted Next-Gen bisulfite sequencing of the FUT7 promoter region was performed. The methylation status of 101 CpG sites surrounding the transcription start site was determined. […] Cells were collected after 96 hours of treatment and cell pellets were prepared. Extracted DNA samples (500 ng) were bisulfite modified using the EZ-96 DNA Methylation-Direct Kit™ (ZymoResearch; Irvine, CA; Catalog No. D5023) per the manufacturer's protocol with minor modification. The bisulfite modified DNA samples were eluted using M-elution buffer in 46 μL. Following DNA extraction and bisulfite modification, 26 regions surrounding the transcription start site were evaluated by PCR/NGS to assess the methylation status of 101 CpG sites. All bisulfite modified DNA samples were amplified using separate multiplex or simplex PCRs. PCRs included 0.5 units of HotStarTaq (Qiagen; Hilden, Germany; Catalog No. 203205), 0.2 μM primers, and 3 μL of bisulfite-treated DNA in a 20 μL reaction.

KG1 AML tumor cells = test: KG1 AML mouse model survival; type: in vivo, NSG mice; details: for median survival time (MST): Compound A 40 mg/kg i.p. qdx14, 5-azacitidine 5 mg/kg i.p. q3dx5
Protocol: A KG1 AML mouse model was also employed to determine whether the E-selectin antagonist Compound A could enhance the anti-tumor effect of 5-azacitidine. Female NSG mice (10 per cohort, six weeks of age) received i.v. injections of 5×10^6 KG1 AML tumor cells per mouse. Beginning 7 days post injection, mice were randomized into four cohorts and treated with either saline (i.p. (intraperitoneal), qdx14 (once daily for 14 days)), Compound A (40 mg/kg i.p. qdx14), 5-azacitidine (5 mg/kg i.p. q3dx5), or a combination of Compound A and 5-azacitidine. The efficacies of the treatments on survival were determined by the Kaplan-Meier estimator and log-rank statistics were used to test for significant differences in survival (FIG. 11). The median survival time (MST) of mice treated with 5-azacitidine was 88 days and statistically different from that of mice treated with saline (MST=69.5 days) or Compound A alone (MST=69 days). […] At study conclusion, (day 104 post tumor injection) 20% of mice treated with 5-azacitidine remained alive.

[1] = target: T1, recombinant human E-selectin-Fc chimera (Homo sapiens, UniProt P16581); test: Adhesion of KG1 AML cells to E-selectin in vitro; type: cell-based
T1 construct: purchased R&D Systems 724-ES
T1 sequence (P16581 with tags, fused parts or gaps limits assumed): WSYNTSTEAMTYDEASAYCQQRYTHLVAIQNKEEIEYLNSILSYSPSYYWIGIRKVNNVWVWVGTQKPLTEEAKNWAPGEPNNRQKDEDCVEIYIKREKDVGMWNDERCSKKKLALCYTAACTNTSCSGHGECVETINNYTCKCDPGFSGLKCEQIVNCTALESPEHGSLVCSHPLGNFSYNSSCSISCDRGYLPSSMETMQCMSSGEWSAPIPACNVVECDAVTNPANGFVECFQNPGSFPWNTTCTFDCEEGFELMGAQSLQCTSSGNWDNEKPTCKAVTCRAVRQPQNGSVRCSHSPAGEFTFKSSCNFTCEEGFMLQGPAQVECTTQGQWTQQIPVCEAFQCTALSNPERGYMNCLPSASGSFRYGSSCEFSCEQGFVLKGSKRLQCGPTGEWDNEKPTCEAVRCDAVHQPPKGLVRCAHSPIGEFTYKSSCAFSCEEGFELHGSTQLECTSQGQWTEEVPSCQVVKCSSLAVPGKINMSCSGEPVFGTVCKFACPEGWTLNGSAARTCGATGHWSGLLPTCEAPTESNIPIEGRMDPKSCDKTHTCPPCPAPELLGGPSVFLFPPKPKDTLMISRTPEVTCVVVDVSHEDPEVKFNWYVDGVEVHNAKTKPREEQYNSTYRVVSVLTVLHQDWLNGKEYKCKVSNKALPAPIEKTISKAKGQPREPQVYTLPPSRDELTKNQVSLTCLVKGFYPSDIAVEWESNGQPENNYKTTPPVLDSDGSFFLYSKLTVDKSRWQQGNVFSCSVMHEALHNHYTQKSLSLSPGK
Protocol: To further explore this hypothesis, the ability of Compound A to disrupt adhesion of KG1 AML cells to E-selectin was assessed using an in vitro assay. Recombinant human E-selectin-Fc chimera was purchased from R&D Systems (724-ES). KG1 AML cell line was purchased from ATCC (CRL-8031) and cultured in RPMI-1640 medium supplemented with 10% fetal bovine serum (FBS). Costar 96-well polystyrene medium binding assay plates were purchased from Corning (9017). 5-azacitidine (5-AZA) was purchased from Sigma-Aldrich (A2386). Calcein AM was purchased from Molecular Probes (C3100MP). FITC-conjugated antibody reactive with cutaneous lymphocyte antigen (HECA-452-FITC) was purchased from BD Pharmingen (555947).
The wells of a 96-well polystyrene plate were coated with 100 μL of 2 μg/mL recombinant human E-selectin-Fc chimera for 2 hours at 37° C., and then washed three times with Hank's Balanced Saline Solution (HBSS). KG1 cells were fluorescently labeled in culture medium with 3 μM Calcein AM for 60 minutes at 37° C., pelleted by centrifugation at 250×g for 10 minutes, then resuspended in HBSS to 2.5×10^5 cells per mL. Next, 2.5×10^4 cells were added to each well, and the cells were allowed to adhere for 45 minutes at room temperature. In some cases, cells were treated daily with 100 nM 5-azacitidine for 96 hours prior to labeling with Calcein AM and adhesion to E-selectin. Appropriate wells received 1 μL of 10 mM Compound A (final concentration in well: 100 μM) and after 30 minutes the wells were observed by fluorescence microscopy and pre-wash fluorescence measurements were taken using a FlexStation plate reader (excitation 485 nm, emission 538 nm, cutoff 530 nm). Subsequently, the wells were washed gently three times with HBSS and observations by fluorescence microscopy and fluorescence readings were repeated.

luc-MV4.11 cells = test: MV4.11 AML model survival; type: in vivo, NSG mice; details: 40 mg/kg Compound A i.p., 100 mg/kg venetoclax oral, 14 days once daily
Protocol: To evaluate the efficacy of targeting E-selectin with Compound A in combination with venetoclax, an in vivo MV4.11 AML model was employed (FIG. 16).
luc-MV4.11 cells (5×10^6 cells/mouse) were transplanted into NSG mice. Mice were divided into four groups: vehicle treatment only; 40 mg/kg of Compound A (intraperitoneal, 14 day once daily); 100 mg/kg venetoclax (oral, 14 days once daily), and a combination of 40 mg/kg Compound A and 100 mg/kg venetoclax. Drug treatment was initiated on day 10 post-transplantation.

[2] = test system: PDX AML (Flt3-ITD and WT1 mutations, sorafenib-resistant); test: PDX model (Flt3-ITD and WT1 mutations, sorafenib-resistant), CyTOF after 2 days; type: in vivo, mice
Protocol: To delineate the mechanism of E-selectin at the onset of drug-mediated changes in AML signaling signatures, another PDX model was employed (Flt3-ITD and WT1 mutations, sorafenib-resistant).
PDX mice with advanced AML (more than 20% human AML cells circulation in peripheral blood) were administered vehicle control, venetoclax (25 mg/kg)/HMA (5.5 mg/kg), Compound A (200 mg/kg), or a combination therapy for 2 days. After 2 days of bolus drug administration, mice were sacrificed and subjected to CyTOF analysis (FIGS. 9A-C). Single cell proteomics analysis by CyTOF determined that combinatorial treatment of Compound A with venetoclax/HMA diminished levels of Ki67, IDU, and pRb compared to vehicle control or venetoclax/HMA alone, resulting in decreased proliferation of AML blasts.

SMILES | methylation of CpG sites of the FUT7 promoter region (FUT7 promoter) | median survival time (MST) (KG1 AML tumor cells) | mice remaining alive at study conclusion (KG1 AML tumor cells; day 104 post tumor injection) | increase in adhesion to E-selectin ([1]; 100 nM 5-AZA 96 hours vs not treated) | fluorescence units of adhered cells ([1]; KG1 cells treated for 96 hours with 100 nM 5-AZA) | median survival time (MST) (luc-MV4.11 cells) | oncogenic signaling pathways MAPK, p-S6, and STAT3 ([2]; Compound A added to venetoclax/HMA) | activation of PI3K and AKT in AML blasts and BM CD31+EC cells ([2]; mouse, in vivo) | eNOS phosphorylation in EC ([2]; mouse, in vivo) | outcome of mice (KG1 AML tumor cells; All mice treated) | fluorescence units after treatment of previously attached cells ([1]; 100 μM Compound A, 30 minutes, p=0.001)
Nc1ncn([C@@H]2O[C@H](CO)[C@@H](O)[C@H]2O)c(=O)n1 [5-azacitidine] | demethylation | 88 days | 20% | 57% | 560.6 fluorescence units |  |  |  |  |  | 
CCC1CC(C(=O)NCCNC(=O)CCOCCOCCOCCOCCOCCOCCOCCOCCOCCOCCOCCOC)C[C@@H](O[C@@H]2OC(CO)[C@H](O)C(O[C@@H](CC3CCCCC3)C(=O)O)C2NC(C)=O)[C@@H]1OC1O[C@@H](C)[C@H](O)C(O)[C@@H]1O (stereo partly drawn) [Compound A] |  | 69 days |  |  |  | 39 days | inhibited | reduced | decreased | succumbed to progressive tumor growth | 55.2 fluorescence units
